Data reported in US6358947B1 (American Home Products Corporation, priority 1999, dated 2002).

Tests used:
Type in all cases: cell-based
human PR [1] = target: T1, human PR (Homo sapiens, UniProt P06401); experiment: Cotransfection assay, PR agonist, CV-1 cells
T1 sequence (P06401 1-933): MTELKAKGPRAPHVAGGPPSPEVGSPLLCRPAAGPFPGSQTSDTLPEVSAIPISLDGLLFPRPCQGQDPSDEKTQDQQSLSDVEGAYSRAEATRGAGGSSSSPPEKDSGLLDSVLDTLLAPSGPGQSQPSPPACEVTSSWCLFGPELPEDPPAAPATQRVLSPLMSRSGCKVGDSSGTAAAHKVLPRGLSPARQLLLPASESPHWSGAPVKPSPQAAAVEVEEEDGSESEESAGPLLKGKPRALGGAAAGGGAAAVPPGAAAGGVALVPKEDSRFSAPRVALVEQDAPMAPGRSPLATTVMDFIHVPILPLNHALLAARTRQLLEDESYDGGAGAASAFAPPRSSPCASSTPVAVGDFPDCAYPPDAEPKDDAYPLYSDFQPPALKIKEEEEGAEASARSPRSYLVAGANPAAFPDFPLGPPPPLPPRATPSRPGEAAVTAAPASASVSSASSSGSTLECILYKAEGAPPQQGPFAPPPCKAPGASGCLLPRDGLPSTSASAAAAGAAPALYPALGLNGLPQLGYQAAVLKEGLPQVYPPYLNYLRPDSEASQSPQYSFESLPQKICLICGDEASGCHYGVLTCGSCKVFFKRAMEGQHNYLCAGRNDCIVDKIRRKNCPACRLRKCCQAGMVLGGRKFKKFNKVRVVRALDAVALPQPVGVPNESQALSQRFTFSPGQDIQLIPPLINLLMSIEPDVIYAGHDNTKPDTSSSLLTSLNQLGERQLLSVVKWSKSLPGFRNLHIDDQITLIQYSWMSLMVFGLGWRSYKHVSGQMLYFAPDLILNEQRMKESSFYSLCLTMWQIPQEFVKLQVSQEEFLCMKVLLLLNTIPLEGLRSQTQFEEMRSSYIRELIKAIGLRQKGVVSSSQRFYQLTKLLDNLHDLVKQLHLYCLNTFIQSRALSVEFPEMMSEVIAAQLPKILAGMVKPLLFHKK
Excerpt: (§1) The cotransfection assay provides a method for identifying functional agonists and partial agonists that mimic, or antagonists that inhibit, the effect of native hormones, and for quantifying their activity for responsive intracellular receptor (IR) proteins. In this regard, the cotransfection assay mimics an in vivo system in the laboratory. Importantly, activity in the cotransfection assay correlates very well with known in vivo activity, such that the cotransfection assay functions as a qualitative and quantitative predictor of a tested compound's in vivo pharmacology.
(§2) In the cotransfection assay, a cloned cDNA for an IR (e.g., human PR, AR or GR) under the control of a constitutive promoter (e.g., the SV 40 promoter) is introduced by transfection (a procedure to induce cells to take up foreign genes) into a background cell substantially devoid of endogenous IRs. This introduced gene directs the recipient cells to make the IR protein of interest. A second gene is also introduced (cotransfected) into the same cells in conjunction with the IR gene. This second gene, comprising the cDNA for a reporter protein, such as firefly luciferase (LUC), is controlled by an appropriate hormone responsive promoter containing a hormone response element (HRE). This reporter plasmid functions as a reporter for the transcription-modulating activity of the target IR. Thus, the reporter acts as a surrogate for the products (mRNA, then protein) normally expressed by a gene under control of the target receptor and its native hormone.
(§3) The cotransfection assay can detect small molecule agonists or antagonists of target IRs. Exposing the transfected cells to an agonist ligand compound increases reporter activity in the transfected cells. This activity can be conveniently measured, e.g., by increasing luciferase production, which reflects compound-dependent, IR-mediated increases in reporter transcription. […] Increasing concentrations of a suspected antagonist will decrease the reporter signal (e.g., luciferase production). The cotransfection assay is therefore useful to detect both agonists and antagonists of specific IRs. Furthermore, it determines not only whether a compound interacts with a particular IR, but whether this interaction mimics (agonizes) or blocks (antagonizes) the effects of the native regulatory molecules on target gene expression, as well as the specificity and strength of this interaction.

hMR = target: T2, hMR (Homo sapiens, UniProt P08235); experiment: Cotransfection assay, MR antagonist; conditions: read-out: MR Potency Antag
T2 sequence (P08235 1-984): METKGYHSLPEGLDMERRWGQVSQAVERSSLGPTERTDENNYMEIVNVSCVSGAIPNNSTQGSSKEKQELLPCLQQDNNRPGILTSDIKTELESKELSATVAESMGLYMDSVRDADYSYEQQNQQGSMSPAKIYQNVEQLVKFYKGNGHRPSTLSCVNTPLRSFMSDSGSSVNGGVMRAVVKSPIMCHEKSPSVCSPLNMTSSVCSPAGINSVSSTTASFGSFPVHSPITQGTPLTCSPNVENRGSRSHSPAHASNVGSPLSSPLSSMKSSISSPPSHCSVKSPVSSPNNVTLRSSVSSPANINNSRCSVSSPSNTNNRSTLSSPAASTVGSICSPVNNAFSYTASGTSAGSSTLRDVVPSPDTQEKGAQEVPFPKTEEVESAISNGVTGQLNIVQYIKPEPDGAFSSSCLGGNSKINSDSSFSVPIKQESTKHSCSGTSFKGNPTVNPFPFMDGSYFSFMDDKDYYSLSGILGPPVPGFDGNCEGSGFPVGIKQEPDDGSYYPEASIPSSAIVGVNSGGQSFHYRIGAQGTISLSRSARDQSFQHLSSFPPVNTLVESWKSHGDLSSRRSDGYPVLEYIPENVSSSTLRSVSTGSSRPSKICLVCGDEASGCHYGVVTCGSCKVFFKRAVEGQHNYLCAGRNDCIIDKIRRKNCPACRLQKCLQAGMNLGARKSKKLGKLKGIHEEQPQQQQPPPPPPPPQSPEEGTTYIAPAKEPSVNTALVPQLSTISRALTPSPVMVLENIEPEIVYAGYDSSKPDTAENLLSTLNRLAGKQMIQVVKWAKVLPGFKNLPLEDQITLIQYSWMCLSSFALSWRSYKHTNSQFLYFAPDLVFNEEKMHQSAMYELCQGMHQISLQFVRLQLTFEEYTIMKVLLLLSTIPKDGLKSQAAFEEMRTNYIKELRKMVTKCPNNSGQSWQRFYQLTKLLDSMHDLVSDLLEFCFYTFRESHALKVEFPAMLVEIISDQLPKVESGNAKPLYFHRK
Excerpt: as §1, §2, §3

hER [2] = target: T3, hER (Homo sapiens, UniProt P03372); experiment: Cotransfection assay, ER antagonist; conditions: read-out: ER Potency Antag
T3 sequence (P03372 1-595): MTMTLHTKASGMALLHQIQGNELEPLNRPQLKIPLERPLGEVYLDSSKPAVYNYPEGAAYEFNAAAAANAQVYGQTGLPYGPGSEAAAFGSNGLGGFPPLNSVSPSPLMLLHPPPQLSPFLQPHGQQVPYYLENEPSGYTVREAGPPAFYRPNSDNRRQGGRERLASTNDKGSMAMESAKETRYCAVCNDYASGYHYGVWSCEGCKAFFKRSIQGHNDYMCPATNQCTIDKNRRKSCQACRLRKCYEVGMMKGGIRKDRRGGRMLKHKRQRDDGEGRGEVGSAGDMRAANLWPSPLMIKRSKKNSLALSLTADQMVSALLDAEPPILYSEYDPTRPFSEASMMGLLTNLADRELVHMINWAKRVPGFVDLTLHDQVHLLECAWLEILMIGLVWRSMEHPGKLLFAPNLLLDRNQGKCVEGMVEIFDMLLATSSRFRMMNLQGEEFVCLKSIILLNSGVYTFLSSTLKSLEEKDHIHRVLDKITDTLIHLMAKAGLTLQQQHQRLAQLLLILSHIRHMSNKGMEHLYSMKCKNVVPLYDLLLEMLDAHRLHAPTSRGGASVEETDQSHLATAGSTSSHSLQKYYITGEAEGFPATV
Excerpt: as §1, §2, §3

hER [3] = target: T3, hER; experiment: Cotransfection assay, ER agonist; conditions: read-out: ER Potency Agon
Excerpt: as §1, §2, §3

hGR = target: T4, hGR (Homo sapiens, UniProt P04150); experiment: Cotransfection assay, GR antagonist; conditions: read-out: GR Potency Antag
T4 sequence (P04150 1-777): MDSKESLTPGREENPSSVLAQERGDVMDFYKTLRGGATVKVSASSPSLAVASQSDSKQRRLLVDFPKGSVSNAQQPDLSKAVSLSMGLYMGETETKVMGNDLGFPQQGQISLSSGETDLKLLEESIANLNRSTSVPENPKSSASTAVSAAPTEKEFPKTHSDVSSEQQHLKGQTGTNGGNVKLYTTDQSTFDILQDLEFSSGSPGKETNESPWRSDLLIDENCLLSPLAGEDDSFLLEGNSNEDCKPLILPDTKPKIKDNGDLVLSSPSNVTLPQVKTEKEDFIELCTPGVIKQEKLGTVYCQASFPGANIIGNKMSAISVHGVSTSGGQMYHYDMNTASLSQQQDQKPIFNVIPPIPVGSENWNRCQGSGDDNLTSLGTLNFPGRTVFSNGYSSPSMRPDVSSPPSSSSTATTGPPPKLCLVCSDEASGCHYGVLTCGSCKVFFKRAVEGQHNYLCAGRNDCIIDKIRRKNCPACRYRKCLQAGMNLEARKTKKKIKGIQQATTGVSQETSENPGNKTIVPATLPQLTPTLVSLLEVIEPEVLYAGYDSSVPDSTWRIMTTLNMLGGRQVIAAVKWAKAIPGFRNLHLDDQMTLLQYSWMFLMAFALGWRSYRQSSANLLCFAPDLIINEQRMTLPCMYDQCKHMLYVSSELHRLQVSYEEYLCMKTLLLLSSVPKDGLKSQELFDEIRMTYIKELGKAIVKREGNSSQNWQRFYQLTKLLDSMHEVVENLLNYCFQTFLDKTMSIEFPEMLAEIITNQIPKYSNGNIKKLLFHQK
Excerpt: as §1, §2, §3

human PR [4] = target: T1, human PR; experiment: Cotransfection assay, PR antagonist, CV-1 cells; conditions: percent maximal response relative to reference antagonist
Excerpt: as §1, §2, §3

Row | SMILES | EC50 (human PR [1]; Table 2, read-out: PR Potency Agon) | IC50 (hMR) | IC50 (hER [2]) | EC50 (hER [3]) | IC50 (hGR) | PR Agonist CV-1 Cells Efficacy (human PR [1]) | PR Antagonist CV-1 Cells Efficacy (human PR [4])
1 | CC(C)C(=O)Nc1ccc([N+](=O)[O-])c(C(F)(F)F)c1 [Flut, reference compound] | > 10 µM | > 10 µM | > 10 µM | > 10 µM |  |  | 
2 | CC(=O)S[C@@H]1CC2=CC(=O)CC[C@]2(C)[C@H]2CC[C@@]3(C)[C@@H](CC[C@@]34CCC(=O)O4)[C@H]12 [Spir, reference compound] |  |  | > 10 µM | > 10 µM | 2000 nM |  | 
3 | CN(C)c1ccc([C@H]2C[C@]3(C)[C@@H](CC[C@]3(O)CCCO)[C@@H]3CCC4=CC(=O)CCC4=C32)cc1 [ZK299, reference compound] |  |  |  |  |  | na (key: na = not active (i.e. efficacy of <20 and potency of >10,000)) | 99%
